The source of these data is ChEMBL document CHEMBL1201862, “PubChem BioAssay data set” (2004).

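Results reflect a 48-hour exposure of cells in 96-well plates to compound at five concentrations. GI50 marks 50% less growth.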 Calls of active or inactive are those of the source. Cut-off read from the data, not from the text of the source: active = GI50 up to about 1.1 µM and inactive = higher. Where a SMILES comes first, the peptide text is derived from it. [ ]: non-standard residue; d: D form. pGlu = O=C1CC[CH](C(=O)O)N1

Test systems include A549; CAKI-1; CCRF-CEM; DU-145; EKVX; HOP-92; HT-29; IGROV-1; MDA-MB-231; OVCAR-3; OVCAR-4; PC-3; RPMI-8226; SF-295; SR; SW-620; T47D; UACC-257; TK-10.
What all share (assay): NCI anticancer screen, dose series, 48 h

Take `O=CC(O)C(O)C1OC(=O)c2cc(O)c(O)c(O)c2C2=C(O)C(O)=C3OC(=O)c4c(c(O)c(O)c5c4C3C2C(=O)O5)-c2c(cc(O)c(O)c2O)C(=O)OCC1O` (stereo not drawn): the GI50 was 24.5 µM (inactive) in the test with A549; 18.1 µM (inactive) with CAKI-1; 20.4 µM (inactive) in the test on CCRF-CEM; 17.9 µM (inactive) with DU-145; 23.7 µM (inactive) with EKVX; 18 µM (inactive) in the test with HOP-92. Moreover, the GI50 with HT-29 was 15.7 µM (inactive); in the test with IGROV-1, 51.6 µM (inactive); with MDA-MB-231 it was 19.1 µM (inactive); in the test with OVCAR-3, 18.2 µM (inactive); with OVCAR-4 it was 16.7 µM (inactive); with PC-3 it was 43.7 µM (inactive). Also, the GI50 in the test with RPMI-8226 was 24.5 µM (inactive); in the test on SF-295, 26.4 µM (inactive); with SR, 24.1 µM (inactive); in the test on SW-620, 16.9 µM (inactive); in the test on T47D, 37.5 µM (inactive); in the test on UACC-257, 49.5 µM (inactive).

Take `Cc1ccc(-c2cc(-c3ccco3)c(C#N)c(=S)[nH]2)cc1`: the GI50 in the test with A549 was 43.9 µM (inactive); with CAKI-1, > 100 µM (inactive); in the test with CCRF-CEM it was 38.3 µM (inactive); in the test with DU-145, 93.5 µM (inactive); with EKVX, 90.6 µM (inactive); with HOP-92, 99.5 µM (inactive). Besides, the GI50 was 92.3 µM (inactive) in the test on HT-29; 25.7 µM (inactive) in the test on IGROV-1; 43.2 µM (inactive) with MDA-MB-231; 61.7 µM (inactive) with OVCAR-3; 75.5 µM (inactive) with OVCAR-4; 28.3 µM (inactive) in the test on PC-3. Further, the GI50 in the test with RPMI-8226 was 35.5 µM (inactive); with SF-295, 38.7 µM (inactive); with SR it was 42.5 µM (inactive); in the test with SW-620, 53.3 µM (inactive); in the test with T47D, 20.4 µM (inactive); in the test on TK-10 it was > 100 µM (inactive).

On to `Cc1cn(C(Cc2ccccc2)OCCO)c(=O)[nH]c1=O` (stereo not drawn), for which the GI50 with A549, with CAKI-1, in the test with CCRF-CEM, in the test on DU-145, in the test with EKVX and with HOP-92 was > 100 µM (inactive) in each case. Also, the GI50 in the test on HT-29, with IGROV-1, with MDA-MB-231, with OVCAR-3, in the test on OVCAR-4 and in the test with PC-3 was > 100 µM (inactive) in each case. Also, the GI50 with RPMI-8226, in the test with SF-295, in the test on SR, with SW-620, with T47D and in the test on UACC-257 was > 100 µM (inactive) throughout.

As for `CN(C)CCn1c(=O)nc2c3c(c([N+](=O)[O-])ccc31)Nc1ccc(O)cc1-2`, the GI50 in the test on A549 was 2.53 µM (inactive); in the test on CAKI-1 it was 5.53 µM (inactive); with CCRF-CEM, 0.948 µM (active); in the test on DU-145, 4.36 µM (inactive); in the test with EKVX, 8.04 µM (inactive); in the test on HOP-92, 2.69 µM (inactive). For the same compound, the GI50 with HT-29 is 0.959 µM (active); in the test on IGROV-1, 1.16 µM (inactive); with MDA-MB-231 it was 2.07 µM (inactive); with OVCAR-3, 2.01 µM (inactive); in the test on OVCAR-4, 9.68 µM (inactive); in the test with PC-3 it was 4.25 µM (inactive). For the same compound, the GI50 in the test on RPMI-8226 was 4.16 µM (inactive); in the test with SF-295 it was 7.21 µM (inactive); in the test on SR, 1.12 µM (inactive); in the test on SW-620 it was 1.73 µM (inactive); with T47D it was 2.37 µM (inactive); with TK-10, 4.66 µM (inactive). Moreover, the GI50 in the test with UACC-257 was 8.28 µM (inactive).

With `Cc1cc2[nH]c(=NS(=O)(=O)c3cc(C)c(Cl)cc3S)[nH]c2cc1C`, the GI50 was 35.7 µM (inactive) with A549; > 100 µM (inactive) with CAKI-1; 21.4 µM (inactive) in the test on CCRF-CEM; > 100 µM (inactive) with DU-145; 24.1 µM (inactive) in the test on EKVX; > 100 µM (inactive) with HOP-92. For the same compound, the GI50 was > 100 µM (inactive) in the test with HT-29; 96.4 µM (inactive) in the test with IGROV-1; > 100 µM (inactive) in the test with MDA-MB-231; > 100 µM (inactive) with OVCAR-3; > 100 µM (inactive) in the test with OVCAR-4; 66.4 µM (inactive) with PC-3. In addition, the GI50 is 45.9 µM (inactive) in the test on RPMI-8226; 53.8 µM (inactive) in the test on SF-295; 19.4 µM (inactive) in the test with SR; 43.4 µM (inactive) with SW-620; 82.2 µM (inactive) in the test with T47D; > 100 µM (inactive) in the test on TK-10. For the same compound, the GI50 with UACC-257 was > 100 µM (inactive).

Turning to `N=C(N)N/N=C/c1ccc(O)c(C(=O)O)c1`, the GI50 with A549 is > 100 µM (inactive); with CAKI-1, > 100 µM (inactive); in the test on CCRF-CEM it was > 100 µM (inactive); in the test on DU-145, > 100 µM (inactive); with HOP-92 it was > 100 µM (inactive); with HT-29, 32.3 µM (inactive). Besides, the GI50 in the test on IGROV-1, with MDA-MB-231, in the test on OVCAR-3, in the test on OVCAR-4, in the test on PC-3 and with RPMI-8226 was > 100 µM (inactive) each time. The GI50 in the test on SF-295, in the test on SR, with SW-620, with T47D, with TK-10 and with UACC-257 was > 100 µM (inactive) throughout.

For the compound `CC(C)(C)CC(C)(C)NC(=S)NO`, the GI50 with A549 is > 100 µM (inactive); in the test on CAKI-1, > 100 µM (inactive); in the test on CCRF-CEM it was > 100 µM (inactive); in the test with DU-145 it was > 100 µM (inactive); in the test with EKVX it was > 100 µM (inactive); with HOP-92, 63.7 µM (inactive). Also, the GI50 in the test on HT-29, with IGROV-1, in the test with MDA-MB-231, in the test on OVCAR-3, in the test with OVCAR-4 and in the test with PC-3 was > 100 µM (inactive) in each case. For the same compound, the GI50 with RPMI-8226, with SF-295, in the test with SR, in the test on SW-620, in the test with T47D and in the test with TK-10 was > 100 µM (inactive) throughout. Further, the GI50 in the test on UACC-257 was > 100 µM (inactive).

`COc1ccc(CCNC(=O)[C@H]2CCCC[C@@H]2CCO)cc1OC`: the GI50 with A549, in the test on CAKI-1, in the test with CCRF-CEM, in the test with DU-145, in the test with EKVX and with HOP-92 was > 100 µM (inactive) in each case. In addition, the GI50 in the test with HT-29, with IGROV-1, in the test on MDA-MB-231, in the test with OVCAR-3, with OVCAR-4 and with PC-3 was > 100 µM (inactive) each time. The GI50 in the test with RPMI-8226, with SF-295, in the test on SR, with SW-620, with T47D and with TK-10 was > 100 µM (inactive) in each case. In the test on UACC-257, the GI50 was > 100 µM (inactive).

Take `O=C(c1cccs1)c1nccc2c1cnc1ccccc12`: the GI50 is > 100 µM (inactive) with A549; 41.5 µM (inactive) in the test with CAKI-1; > 100 µM (inactive) in the test on CCRF-CEM; > 100 µM (inactive) in the test with DU-145; > 100 µM (inactive) in the test with EKVX; 36.6 µM (inactive) in the test on HOP-92. The GI50 in the test on HT-29, in the test with MDA-MB-231, in the test with OVCAR-3, in the test on OVCAR-4, in the test on PC-3 and with RPMI-8226 was > 100 µM (inactive) throughout. Further, the GI50 with SF-295, in the test on SR, in the test on SW-620, in the test on T47D, in the test with TK-10 and with UACC-257 was > 100 µM (inactive) each time.

Take `CNC(=S)N/N=C/c1cccc(C)n1`: the GI50 in the test on A549 was 39 µM (inactive); with CAKI-1, 47.6 µM (inactive); in the test on CCRF-CEM, 23.4 µM (inactive); with DU-145, 28.8 µM (inactive); with EKVX, 46.6 µM (inactive); in the test with HOP-92, 55.8 µM (inactive). For the same compound, the GI50 is 36 µM (inactive) with HT-29; 44.7 µM (inactive) with IGROV-1; 39.3 µM (inactive) in the test with MDA-MB-231; 29.9 µM (inactive) in the test with OVCAR-3; > 59.7 µM (inactive) with OVCAR-4; 42 µM (inactive) in the test on PC-3. Further, the GI50 was > 59.8 µM (inactive) with RPMI-8226; 32.7 µM (inactive) in the test with SF-295; > 41.9 µM (inactive) with SR; 49.1 µM (inactive) in the test on SW-620; 42.8 µM (inactive) in the test on T47D; 32.8 µM (inactive) in the test on TK-10. In the test with UACC-257, the GI50 is 32.7 µM (inactive).

As to `CC(NC(=O)C1CCC(=O)N1)C(=O)N1CCCC1C(N)=O` (stereo not drawn) ([pGlu]-Ala-Pro-NH2; configuration not given here), the GI50 in the test on A549, in the test with CAKI-1, with CCRF-CEM, in the test on DU-145, in the test on EKVX and with HOP-92 was > 100 µM (inactive) throughout. Further, the GI50 in the test with HT-29, with IGROV-1, with MDA-MB-231, in the test on OVCAR-3, in the test on OVCAR-4 and in the test on PC-3 was > 100 µM (inactive) each time. In addition, the GI50 in the test on RPMI-8226, in the test with SF-295, in the test with SR, with SW-620, with T47D and with TK-10 was > 100 µM (inactive) each time.
